In ChEMBL document CHEMBL2375212, “Synthesis and evaluation of novel marine bromopyrrole alkaloid-based hybrids as anticancer agents” (Eur J Med Chem, 2013):
In brackets after ≈: the same amount, converted by molar mass.

Assays:
[1] = molecular target: Dual specificity mitogen-activated protein kinase kinase 1 (Homo sapiens, UniProt Q02750); assay: Inhibition of MEK1 (unknown origin)
WRL68 = assay: Cytotoxicity against human WRL68 cells compound treated for 6 hrs measured 48 hrs post washout by MTT assay; type: functional, cell-based
[2] = Cytotoxicity against human KB403 cells compound treated for 6 hrs measured 48 hrs post washout by MTT assay; type: functional, cell-based
MCF7 [3] = assay: Cytotoxicity against human MCF7 cells compound treated for 6 hrs measured 48 hrs post washout by MTT assay; type: functional, cell-based
Caco-2 = assay: Cytotoxicity against human Caco2 cells compound treated for 6 hrs measured 48 hrs post washout by MTT assay; type: functional, cell-based
PA-1 = assay: Cytotoxicity against human PA1 cells compound treated for 6 hrs measured 48 hrs post washout by MTT assay; type: functional, cell-based
HepG2 = assay: Cytotoxicity against human HepG2 cells by MTT assay; type: functional, cell-based
P388 = assay: Cytotoxicity against mouse P388 cells by MTT assay; type: functional; conditions: read-out: ED50 (the source's name)
MCF7 [4] = assay: Cytotoxicity against human MCF7 cells by MTT assay; type: functional, cell-based
COLO 205 = assay: Cytotoxicity against human COLO205 cells by MTT assay; type: functional, cell-based
[5] = Cytotoxicity against mouse SVEC cells by MTT assay; type: functional, cell-based

Sequence of Dual specificity mitogen-activated protein kinase kinase 1 (Q02750 whole entry): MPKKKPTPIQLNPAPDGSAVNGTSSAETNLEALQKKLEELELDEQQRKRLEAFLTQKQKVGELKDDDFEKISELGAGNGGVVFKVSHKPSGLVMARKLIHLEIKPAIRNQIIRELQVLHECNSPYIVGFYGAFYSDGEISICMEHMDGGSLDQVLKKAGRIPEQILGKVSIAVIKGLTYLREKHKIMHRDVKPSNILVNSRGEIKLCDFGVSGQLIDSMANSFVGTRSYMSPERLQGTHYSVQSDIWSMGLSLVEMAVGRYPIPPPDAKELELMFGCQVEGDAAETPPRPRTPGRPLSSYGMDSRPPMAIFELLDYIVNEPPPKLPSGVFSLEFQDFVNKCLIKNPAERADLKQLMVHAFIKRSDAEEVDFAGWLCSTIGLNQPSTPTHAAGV

IC50 [1] | SMILES | IC50 (WRL68) | IC50 [2] | IC50 (MCF7 [3]) | IC50 (Caco-2) | IC50 (PA-1) | IC50 (HepG2) | EC50 (P388) | IC50 (MCF7 [4]) | IC50 (COLO 205) | IC50 [5]
0.006 µM | Nc1nc(C2CCNC(=O)c3[nH]c(Br)c(Br)c32)c[nH]1 (centres undefined) |  |  |  |  |  |  |  |  |  | 
 | Cn1c(-c2cc(=O)c3ccccc3o2)cc(Br)c1Br | ≥ 100 µM | 0.67 µM | ≥ 100 µM | ≥ 100 µM | 0.6 µM |  |  |  |  | 
 | Cn1c(-c2cc(-c3ccccc3)no2)cc(Br)c1Br | ≥ 100 µM | ≥ 100 µM | ≥ 100 µM | 16.6 µM | ≥ 100 µM |  |  |  |  | 
 | Cn1c(-c2cc(-c3ccc[nH]3)no2)cc(Br)c1Br | ≥ 100 µM | 3.1 µM | ≥ 100 µM | ≥ 100 µM | ≥ 100 µM |  |  |  |  | 
 | Cn1c(-c2cc(-c3ccccc3O)no2)cc(Br)c1Br | ≥ 100 µM | 2.45 µM | ≥ 100 µM | ≥ 100 µM | ≥ 100 µM |  |  |  |  | 
 | Brc1cc(-c2cc(-c3ccc[nH]3)no2)[nH]c1Br | ≥ 100 µM | 4.82 µM | ≥ 100 µM | ≥ 100 µM | ≥ 100 µM |  |  |  |  | 
 | Oc1ccccc1-c1cc(-c2cc(Br)c(Br)[nH]2)on1 | ≥ 100 µM | 16.4 µM | ≥ 100 µM | ≥ 100 µM | ≥ 100 µM |  |  |  |  | 
 | COC(=O)C(NCC(=O)c1cc(Br)c(Br)[nH]1)C(C)C (centres undefined) |  |  |  |  |  | 15.3 µg/mL |  |  |  | 
 | COC(=O)C[C@H]1CNC(=O)c2cc(Br)c(Br)n21 |  |  |  |  |  |  | 30 µg/mL (≈ 82 µM) |  |  | 
 | O=C(/C=C/c1cccc(Cl)c1)c1ccccc1 |  |  |  |  |  |  |  | 5.25 µg/mL (≈ 21.6 µM) |  | 
 | O=c1cc(C2CCCCC2)oc2ccccc12 |  |  |  |  |  | 2.9 µM |  |  |  | 
 | c1ccc(-c2cc(COc3ccccc3-c3nc4ccccc4s3)on2)cc1 |  |  |  |  |  |  |  |  | 14.2 µM | 
 | COc1cc(-c2cc(-c3cc(OC)c(OC)c(OC)c3)on2)ccc1O |  |  |  |  |  |  |  |  |  | 23.5 µM
 | Cn1c(/C=C/C(=O)c2ccccc2O)cc(Br)c1Br | 0.33 µM | 8.32 µM | 2.51 µM | 3.16 µM | 1.25 µM |  |  |  |  | 
 | Cn1c(/C=C/C(=O)c2ccccc2)cc(Br)c1Br | ≥ 100 µM | ≥ 100 µM | 35.4 µM | ≥ 100 µM | ≥ 100 µM |  |  |  |  | 
 | Cn1c(/C=C/C(=O)c2ccc[nH]2)cc(Br)c1Br | 2.11 µM | 0.6 µM | 0.45 µM | ≥ 100 µM | 0.73 µM |  |  |  |  | 

IC50 [1] | SMILES | IC50 (WRL68) | IC50 [2] | IC50 (MCF7 [3]) | IC50 (Caco-2) | IC50 (PA-1) | IC50 (HepG2) | EC50 (P388) | IC50 (MCF7 [4]) | IC50 (COLO 205) | IC50 [5]
 | COc1ccc(C(=O)/C=C/c2cc(Br)c(Br)n2C)c(OC)c1 | 0.64 µM | ≥ 100 µM | 0.08 µM | ≥ 100 µM | 0.52 µM |  |  |  |  | 
 | COc1ccc(OC)c(C(=O)/C=C/c2cc(Br)c(Br)n2C)c1 | 3.27 µM | ≥ 100 µM | 0.65 µM | ≥ 100 µM | 0.8 µM |  |  |  |  | 
 | Cn1c(/C=C/C(=O)c2ccc(Cl)cc2Cl)cc(Br)c1Br | 14.7 µM | ≥ 100 µM | 1.84 µM | ≥ 100 µM | 1 µM |  |  |  |  | 
 | Cn1c(/C=C/C(=O)c2cccc(O)c2)cc(Br)c1Br | ≥ 100 µM | ≥ 100 µM | 12.8 µM | ≥ 100 µM | ≥ 100 µM |  |  |  |  | 
 | Cn1c(/C=C/C(=O)c2ccc(O)cc2O)cc(Br)c1Br | 0.18 µM | 12 µM | 1.61 µM | 3.53 µM | 0.83 µM |  |  |  |  | 
 | Cn1c(/C=C/C(=O)c2ccc(O)cc2)cc(Br)c1Br | 1.91 µM | ≥ 100 µM | 3.12 µM | 6 µM | 2.85 µM |  |  |  |  | 
 | Cn1c(/C=C/C(=O)c2cc(O)ccc2O)cc(Br)c1Br | 0.88 µM | ≥ 100 µM | 0.32 µM | ≥ 100 µM | 0.38 µM |  |  |  |  | 
 | Cn1c(/C=C/C(=O)c2cccc(N)c2)cc(Br)c1Br | ≥ 100 µM | ≥ 100 µM | 12.4 µM | ≥ 100 µM | ≥ 100 µM |  |  |  |  | 
 | O=C(/C=C/c1cc(Br)c(Br)[nH]1)c1ccccc1O | 1.42 µM | ≥ 100 µM | 1.49 µM | ≥ 100 µM | 0.33 µM |  |  |  |  | 
 | O=C(/C=C/c1cc(Br)c(Br)[nH]1)c1ccccc1 | ≥ 100 µM | ≥ 100 µM | 12.2 µM | ≥ 100 µM | ≥ 100 µM |  |  |  |  | 
 | O=C(/C=C/c1cc(Br)c(Br)[nH]1)c1ccc[nH]1 | ≥ 100 µM | ≥ 100 µM | 0.072 µM | ≥ 100 µM | 0.5 µM |  |  |  |  | 
 | COc1ccc(C(=O)/C=C/c2cc(Br)c(Br)[nH]2)c(OC)c1 | 9.22 µM | ≥ 100 µM | 0.03 µM | ≥ 100 µM | 0.32 µM |  |  |  |  | 
 | COc1ccc(OC)c(C(=O)/C=C/c2cc(Br)c(Br)[nH]2)c1 | 12.3 µM | ≥ 100 µM | 0.22 µM | ≥ 100 µM | 0.42 µM |  |  |  |  | 
 | O=c1cc(-c2cc(Br)c(Br)[nH]2)oc2ccccc12 | ≥ 100 µM | 1.28 µM | ≥ 100 µM | ≥ 100 µM | 0.41 µM |  |  |  |  | 
 | CC(=O)O[C@H]1C(=O)[C@@]2(C)[C@H]([C@H](OC(=O)c3ccccc3)[C@]3(O)C[C@H](OC(=O)[C@H](O)[C@@H](NC(=O)c4ccccc4)c4ccccc4)C(C)=C1C3(C)C)[C@]1(OC(C)=O)CO[C@@H]1C[C@@H]2O [PACLITAXEL] |  | 0.001 µM |  |  | 0.008 µM |  |  |  |  | 
